“And” between values parts separate entries of the source, which are not always exact repeats. Equal entries are not always repeated.
Columns and labels:
[1] = system: MCF-7 cells; assay: Fatty acid oxidation ([1-14C]palmitate to 14CO2) in MCF-7 cells; type: cell-based, human
Experimental: Human breast cancer cell line MCF-7 was obtained from the American Type Culture Collection. 1×10^6 MCF-7 cells were plated in T-25 flasks in triplicate and incubated overnight at 37° C. Drugs were then added as indicated diluted from 5 mg/ml stock in DMSO. After 2 hours, medium with drugs was removed and cells were preincubated for 30 min. with 1.5 ml of the following buffer: 114 mM NaCl, 4.7 mM KCl, 1.2 mM KH2PO4, 1.2 mM MgSO4, glucose 11 mM. After preincubation, 200 μl of assay buffer was added containing: 114 mM NaCl, 4.7 mM KCl, 1.2 mM KH2PO4, 1.2 mM MgSO4, glucose 11 mM, 2.5 mM palmitate (containing with 10 μCi of [1-^14C]palmitate) bound to albumin, 0.8 mM L-carnitine, and cells were incubated at 37° C. for 2 h. Following the incubation, 400 μl of benzethonium hydrochloride was added to the center well to collect released ^14CO2. Immediately, the reaction was stopped by adding 500 μl of 7% perchloric acid to the cells. The flasks with wells were then incubated for 2 h at 37° C. after which the benzothonium hydrochloride was removed and counted for ^14C. Blanks were prepared by adding 500 μl of 7% perchloric acid to the cells prior to the incubation with the assay buffer for 2 h.
(§1) FAS activity was measured by monitoring the malonyl-CoA dependent oxidation of NADPH spectrophotometrically at OD340 in 96-well plates, as described in International Patent Publication WO 2004/005277. The IC50 for the compounds against FAS was determined by plotting the change in OD340 against time for each inhibitor concentration tested and determining the rate of change by linear regression. The concentration of a particular compound yielding 50% inhibition of the rate for FAS in the absence of the compound is the IC50. Stimulation of CPT-1 activity was measured as described in Example 2, except the cells were preincubated with the compound for 2 hours at the concentrations indicated in the table. Stimulation of Fatty acid oxidation was determined as described in Example 1 for cells preincubated with the compounds at the concentrations indicated in the table.

[2] = target: T1, CPT-1 (Homo sapiens, UniProt P50416); assay: CPT-1 activity assay in MCF-7 cells; type: cell-based; conditions: for CPT-1 Stimulation (% Control): cells preincubated 2 hours; for CPT-1 activity, % of control: FIG. 4
T1 construct: endogenous in cells; host or cells: MCF-7 human breast cancer cells
T1 sequence (P50416 1-773): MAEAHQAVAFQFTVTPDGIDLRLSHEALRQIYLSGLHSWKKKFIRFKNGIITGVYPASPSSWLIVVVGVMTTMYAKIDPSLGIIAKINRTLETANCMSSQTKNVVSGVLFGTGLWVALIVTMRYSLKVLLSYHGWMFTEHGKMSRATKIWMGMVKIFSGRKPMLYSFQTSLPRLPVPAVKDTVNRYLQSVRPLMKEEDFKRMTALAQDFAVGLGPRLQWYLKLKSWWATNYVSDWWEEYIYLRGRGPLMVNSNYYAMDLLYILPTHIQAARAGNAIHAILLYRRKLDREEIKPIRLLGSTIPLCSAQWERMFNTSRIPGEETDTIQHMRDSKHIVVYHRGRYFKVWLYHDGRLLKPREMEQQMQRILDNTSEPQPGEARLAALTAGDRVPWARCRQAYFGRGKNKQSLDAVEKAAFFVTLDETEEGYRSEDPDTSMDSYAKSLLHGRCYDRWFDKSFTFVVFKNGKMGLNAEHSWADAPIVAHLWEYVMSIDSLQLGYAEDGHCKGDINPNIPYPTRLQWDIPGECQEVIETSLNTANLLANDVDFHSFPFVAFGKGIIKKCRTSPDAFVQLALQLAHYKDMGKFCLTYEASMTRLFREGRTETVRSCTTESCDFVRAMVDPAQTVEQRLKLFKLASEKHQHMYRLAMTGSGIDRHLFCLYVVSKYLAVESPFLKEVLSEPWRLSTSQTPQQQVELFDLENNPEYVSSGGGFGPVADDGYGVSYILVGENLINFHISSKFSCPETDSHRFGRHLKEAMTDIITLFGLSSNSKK
Experimental: CPT-1 activity was assayed in MCF-7 cells by the following published procedure: MCF-7 cells were plated in DMEM with 10% fetal bovine serum at 10^6 cells in 24-well plates in triplicate. Following overnight incubation at 37° C., the medium was removed and replaced with 700 μl of assay medium consisting of: 50 mM imidazole, 70 mM KCl, 80 mM sucrose, 1 mM EGTA, 2 mM MgCl2, 1 mM DTT, 1 mM KCN, 1 mM ATP, 0.1% fatty acid free bovine serum albumin, 70 μM palmitoyl-CoA, 0.25 μCi [methyl-^14C]L-carnitine, 40 μg digitonin with or without 20 μM malonyl-CoA. After incubation for 6 minutes at 37° C., the reaction was stopped by the addition of 500 μl of ice-cold 4 M perchloric acid. Cells were then harvested and centrifuged at 13,000×g for 5 min. The pellet was washed with 500 μl ice cold 2 mM perchloric acid and centrifuged again. The resulting pellet was resuspended in 800 μl dH2O and extracted with 150 μl of butanol. The butanol phase was counted by liquid scintillation and represents the acylcarnitine derivative.
MCF-7 cells were treated with C75 at 10 or 20 μg/mL for 1 hr before CPT-1 activity was assayed. The assay was performed with the C75 and malonyl-CoA concentrations indicated (“M” indicates malonyl-CoA at 20 uM). Malonyl-CoA treatment alone caused a 46% reduction in CPT-1 activity similar to the previous experiment (see FIG. 2; p=0.02, two-tailed t-test, Prism 3.0). The level of malonyl-CoA inhibition of the CPT-1 activity is consistent with the activity of the liver isoform of CPT-1 in MCF-7 cells. The Ki of malonyl-CoA for the liver isoform of CPT-1 is ˜7 μM while the Ki for the muscle isoform of CPT-1 is 0.07 μM. Thus, MCF-7 cells express predominantly the liver isoform of CPT-1 (consistent with the immunoblot analysis).
as §1

[3] = target: FAS (Homo sapiens, UniProt P49327); assay: FAS activity, malonyl-CoA dependent oxidation of NADPH at OD340; type: biochemical; conditions: read-out: FAS Inhibition (IC50) (converted)
Sequence of FAS (P49327 whole entry): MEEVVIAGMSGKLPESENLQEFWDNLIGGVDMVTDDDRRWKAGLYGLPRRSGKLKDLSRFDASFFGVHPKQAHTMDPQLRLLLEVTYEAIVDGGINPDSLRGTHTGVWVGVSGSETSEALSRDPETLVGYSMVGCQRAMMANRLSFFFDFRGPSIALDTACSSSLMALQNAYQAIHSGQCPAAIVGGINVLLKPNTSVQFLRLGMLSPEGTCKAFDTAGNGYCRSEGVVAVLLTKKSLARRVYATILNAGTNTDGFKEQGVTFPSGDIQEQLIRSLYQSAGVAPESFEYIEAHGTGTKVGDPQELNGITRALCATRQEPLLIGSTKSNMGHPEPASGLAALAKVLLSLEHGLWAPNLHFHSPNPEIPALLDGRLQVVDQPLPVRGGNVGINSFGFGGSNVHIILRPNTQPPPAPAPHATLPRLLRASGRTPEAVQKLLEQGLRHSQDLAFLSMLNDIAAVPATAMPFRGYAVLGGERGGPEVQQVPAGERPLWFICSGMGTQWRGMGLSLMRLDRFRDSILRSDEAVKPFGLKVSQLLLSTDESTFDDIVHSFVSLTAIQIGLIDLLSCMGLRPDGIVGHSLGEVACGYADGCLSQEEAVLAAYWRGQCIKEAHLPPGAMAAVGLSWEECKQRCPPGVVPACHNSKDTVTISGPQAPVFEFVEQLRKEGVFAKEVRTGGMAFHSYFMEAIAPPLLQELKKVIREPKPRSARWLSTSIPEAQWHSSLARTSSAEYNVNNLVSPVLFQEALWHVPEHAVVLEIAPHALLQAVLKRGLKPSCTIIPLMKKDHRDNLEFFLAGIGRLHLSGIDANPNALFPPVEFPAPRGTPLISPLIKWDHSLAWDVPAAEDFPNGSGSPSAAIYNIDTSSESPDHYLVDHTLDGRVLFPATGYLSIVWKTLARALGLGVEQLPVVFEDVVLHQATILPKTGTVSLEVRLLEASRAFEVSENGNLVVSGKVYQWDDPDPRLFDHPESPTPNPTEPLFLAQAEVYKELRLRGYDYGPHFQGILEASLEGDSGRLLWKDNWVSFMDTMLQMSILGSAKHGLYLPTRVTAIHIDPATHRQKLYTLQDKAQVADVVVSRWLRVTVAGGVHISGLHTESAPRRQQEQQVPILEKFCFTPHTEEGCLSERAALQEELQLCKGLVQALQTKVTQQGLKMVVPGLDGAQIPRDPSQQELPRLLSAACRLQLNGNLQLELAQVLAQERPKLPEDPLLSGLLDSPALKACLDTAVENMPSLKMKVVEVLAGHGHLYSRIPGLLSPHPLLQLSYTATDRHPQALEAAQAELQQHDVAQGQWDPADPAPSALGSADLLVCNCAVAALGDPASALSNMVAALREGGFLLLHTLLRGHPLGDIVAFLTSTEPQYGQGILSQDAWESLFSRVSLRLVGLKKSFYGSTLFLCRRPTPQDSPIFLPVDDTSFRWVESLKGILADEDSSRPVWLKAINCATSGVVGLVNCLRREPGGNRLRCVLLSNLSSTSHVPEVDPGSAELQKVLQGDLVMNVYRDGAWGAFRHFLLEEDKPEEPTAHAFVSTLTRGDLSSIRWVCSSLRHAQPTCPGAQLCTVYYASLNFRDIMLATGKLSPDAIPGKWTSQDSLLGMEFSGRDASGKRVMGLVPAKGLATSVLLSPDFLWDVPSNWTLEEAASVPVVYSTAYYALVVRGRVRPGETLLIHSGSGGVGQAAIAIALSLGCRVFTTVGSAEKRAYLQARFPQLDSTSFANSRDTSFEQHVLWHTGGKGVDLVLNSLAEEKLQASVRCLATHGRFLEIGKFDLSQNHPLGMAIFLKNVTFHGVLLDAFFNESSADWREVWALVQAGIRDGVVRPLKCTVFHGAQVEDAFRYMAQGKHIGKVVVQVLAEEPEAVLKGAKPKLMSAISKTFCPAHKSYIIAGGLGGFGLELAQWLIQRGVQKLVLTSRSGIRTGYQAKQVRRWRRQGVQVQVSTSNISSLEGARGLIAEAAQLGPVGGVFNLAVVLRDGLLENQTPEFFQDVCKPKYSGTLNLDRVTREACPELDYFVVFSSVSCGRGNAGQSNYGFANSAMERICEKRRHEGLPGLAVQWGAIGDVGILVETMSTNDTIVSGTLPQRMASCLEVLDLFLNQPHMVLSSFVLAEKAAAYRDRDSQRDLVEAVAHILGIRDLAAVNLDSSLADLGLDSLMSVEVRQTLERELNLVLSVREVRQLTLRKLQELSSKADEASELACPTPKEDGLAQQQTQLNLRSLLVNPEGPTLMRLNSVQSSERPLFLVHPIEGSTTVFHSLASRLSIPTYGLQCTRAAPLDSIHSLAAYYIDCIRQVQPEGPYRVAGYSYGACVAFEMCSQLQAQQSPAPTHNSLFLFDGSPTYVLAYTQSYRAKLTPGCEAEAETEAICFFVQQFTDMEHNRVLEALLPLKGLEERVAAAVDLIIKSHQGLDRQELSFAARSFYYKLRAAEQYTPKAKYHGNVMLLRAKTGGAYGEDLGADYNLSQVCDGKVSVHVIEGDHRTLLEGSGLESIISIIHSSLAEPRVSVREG
Experimental: as §1

[4] = system: MCF-7 cells; conditions: cited from earlier work
[5] = system: MCF-7 cells; conditions: literature; cited from earlier work
[6] = target: T2, muscle isoform of CPT-1 (Homo sapiens, UniProt Q92523); conditions: cited from earlier work
T2 sequence (Q92523 1-772): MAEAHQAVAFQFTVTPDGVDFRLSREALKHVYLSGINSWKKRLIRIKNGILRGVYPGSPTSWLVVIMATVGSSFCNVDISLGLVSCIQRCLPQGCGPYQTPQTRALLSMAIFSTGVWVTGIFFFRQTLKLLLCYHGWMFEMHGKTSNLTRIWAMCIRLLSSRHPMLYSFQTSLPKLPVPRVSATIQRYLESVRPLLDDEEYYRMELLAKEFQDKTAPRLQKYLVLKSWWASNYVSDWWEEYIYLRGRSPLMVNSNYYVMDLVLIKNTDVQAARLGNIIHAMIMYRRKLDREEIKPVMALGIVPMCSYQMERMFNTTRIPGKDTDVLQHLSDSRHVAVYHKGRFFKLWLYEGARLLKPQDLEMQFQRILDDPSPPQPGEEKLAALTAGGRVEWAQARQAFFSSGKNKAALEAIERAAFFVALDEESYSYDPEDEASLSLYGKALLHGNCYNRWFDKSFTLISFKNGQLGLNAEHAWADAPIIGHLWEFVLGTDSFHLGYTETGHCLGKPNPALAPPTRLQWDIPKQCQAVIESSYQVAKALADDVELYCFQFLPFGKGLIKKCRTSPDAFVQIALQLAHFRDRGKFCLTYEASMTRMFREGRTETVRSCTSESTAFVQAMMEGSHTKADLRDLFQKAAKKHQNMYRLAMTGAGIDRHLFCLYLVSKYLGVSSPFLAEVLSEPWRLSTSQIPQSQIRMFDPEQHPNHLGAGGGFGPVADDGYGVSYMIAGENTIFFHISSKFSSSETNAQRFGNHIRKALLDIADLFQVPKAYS

[7] = target: T3, liver isoform of CPT-1 (Homo sapiens, UniProt P50416); conditions: cited from earlier work
T3 sequence (P50416 1-773): T1 sequence (P50416 1-773)

[8] = MCF-7, 20 μg/ml 1 hr before assay

CCCCCCCC[C@]1(C)SC(=O)C=C1OC(=O)OCC (racemic)
Fatty Acid Oxidation (% Control) ([1]; 10 μg/mL): 140 % Control
CPT-1 Stimulation (% Control) ([2]; 20 μg/mL): 150 % Control
IC50 [3]: 14.6 µM

C=CCNC(=O)[C@@H]1C(=C)C(=O)O[C@H]1CCCCCCCC (racemic)
Fatty Acid Oxidation (% Control) ([1]; 0.625 μg/mL): 400 % Control
CPT-1 Stimulation (% Control) ([2]; 10 μg/mL): 400 % Control
IC50 [3]: 163 µM

C=C1C(=O)O[C@@H](CCCCCCCC)[C@@H]1C(=O)NCC(=O)O (racemic)
Fatty Acid Oxidation (% Control) ([1]; 40 μg/mL): 500 % Control
CPT-1 Stimulation (% Control) ([2]; 80 μg/mL): 500 % Control
IC50 [3]: 167 µM

C=CCC1(CC=C)C(=O)S[C@@](C)(CCCCCCCC)C1=O (racemic)
Fatty Acid Oxidation (% Control) ([1]; 10 μg/mL): 175 % Control
CPT-1 Stimulation (% Control) ([2]; 20 μg/mL): 175 % Control

C/C=C/C/C=C/CCC(=O)[C@H]1O[C@H]1C(N)=O [Cerulenin, reference compound]
effect on malonyl-CoA amount [4]: increases
effect on fatty acid oxidation [5]: inhibition of fatty acid oxidation

C=C1C(=O)OC(CCCCCCCCCCCC)C1C(=O)O (centres unmarked) [Compound C12]
CPT-1 activity, % of control [2, 8]: 186 % of control

C=C1C(=O)OC(CCCCCCCCCCCCCCCC)C1C(=O)O (centres unmarked) [Compound C16]
CPT-1 activity, % of control [2, 8]: 138 % of control

CCOC(=O)[C@@]1(CCCCCCOc2ccc(Cl)cc2)CO1 [Etomoxir, reference compound]
fatty acid oxidation, % of control ([1]; MCF-7, FIG. 1): 32 % of control

CC(C)(COP(=O)(O)OP(=O)(O)OC[C@H]1O[C@@H](n2cnc3c(N)ncnc32)[C@H](O)[C@@H]1OP(=O)(O)O)[C@@H](O)C(=O)NCCC(=O)NCCSC(=O)CC(=O)O [Malonyl-CoA, reference compound]
Ki [6]: 0.07 µM
CPT-1 activity, % of control ([2]; MCF-7, 20 μM in reaction buffer): 64 % of control
reduction (inhibition) of CPT-1 activity ([2]; malonyl-CoA alone at 20 μM in the assay, MCF-7): 46% and ~70%
Ki [7]: ~7 µM

Reference: patent publication US7459481B2, “Stimulation of CPT-1 as a means to reduce weight” (The Johns Hopkins University School of Medicine Licensing …, priority 2002, dated 2008)
